Test: xn = mol fraction of the nth substance listed

CCc1ccccc1 + CCCCCCCCCCO
viscosity [mPa·s], 101 kPa
Details	298.15 K	308.15 K
x1 = 0.0666	9.53	6.54
x1 = 0.1392	7.494	5.177
x1 = 0.1932	6.24	4.343
x1 = 0.2642	4.904	3.44
x1 = 0.3355	3.841	2.703
x1 = 0.3936	3.152	2.225
x1 = 0.4483	2.623	1.883
x1 = 0.5238	2.056	1.499
x1 = 0.598	1.632	1.206
x1 = 0.6621	1.35	1.023
x1 = 0.7309	1.118	0.863
x1 = 0.7953	0.951	0.744
x1 = 0.8668	0.802	0.659
x1 = 0.9396	0.693	0.597

CCCC(C)C + CCCCCCCCCCCCCC
298 K, 101.33 kPa
Details	viscosity [mPa·s]
x1 = 0.1041	1.795
x1 = 0.2003	1.595
x1 = 0.3021	1.362
x1 = 0.4053	1.136
x1 = 0.5024	0.9502
x1 = 0.6012	0.7806
x1 = 0.7022	0.6276
x1 = 0.8003	0.4899
x1 = 0.8985	0.3762

OC1CCCC1 + OCCO
viscosity [mPa·s], 100 kPa
Details	293.15 K	298.15 K	303.15 K	308.15 K	313.15 K	318.15 K
x1 = 0.0096	20.05	16.39	13.54	11.2	9.449	7.776
x1 = 0.0395	19.37	15.85	13.05	10.76	9.1	7.468
x1 = 0.0579	19.05	15.56	12.79	10.56	8.919	7.326
x1 = 0.0879	18.56	15.14	12.41	10.23	8.646	7.096
x1 = 0.1	18.37	14.97	12.3	10.1	8.562	7.014
x1 = 0.1962	17.2	13.96	11.39	9.382	7.926	6.505
x1 = 0.305	16.2	13.09	10.65	8.716	7.366	6.078
x1 = 0.3969	15.4	12.54	10.2	8.282	7.016	5.819
x1 = 0.4993	14.8	12.02	9.751	7.927	6.692	5.617
x1 = 0.5877	14.3	11.69	9.42	7.677	6.437	5.439
x1 = 0.6993	13.9	11.33	8.99	7.319	6.14	5.219
x1 = 0.797	13.56	11.01	8.69	7.01	5.861	5.05
x1 = 0.8977	13.15	10.62	8.345	6.737	5.625	4.89

[Na+].[O-][Cl+2]([O-])[O-] + O
viscosity [mPa·s], 100 kPa
Details	x1 = 0.001798	x1 = 0.003644	x1 = 0.005393	x1 = 0.007261	x1 = 0.008945	x1 = 0.01087	x1 = 0.01261	x1 = 0.01436	x1 = 0.01582	x1 = 0.01761
293.15 K	0.996	1.007	1.017	1.025	1.033	1.042	1.05	1.058	1.067	1.076
298.15 K	0.889	0.897	0.908	0.918	0.926	0.933	0.942	0.949	0.957	0.965
303.15 K	0.801	0.809	0.817	0.827	0.835	0.841	0.849	0.857	0.865	0.873
308.15 K	0.726	0.734	0.742	0.75	0.758	0.765	0.774	0.781	0.788	0.796
313.15 K	0.663	0.67	0.678	0.685	0.693	0.7	0.708	0.716	0.723	0.729
318.15 K	0.609	0.616	0.623	0.631	0.637	0.643	0.65	0.657	0.665	0.672

Clc1ccccc1 + Cc1ccccc1C
101 kPa
Details	viscosity [mPa·s]
293.15 K, x1 = 0.1217	0.755
293.15 K, x1 = 0.2237	0.76
293.15 K, x1 = 0.4305	0.759
293.15 K, x1 = 0.5325	0.753
293.15 K, x1 = 0.6305	0.76
293.15 K, x1 = 0.7288	0.755
293.15 K, x1 = 0.8295	0.756
293.15 K, x1 = 0.9051	0.75
298.15 K, x1 = 0.1005	0.712
298.15 K, x1 = 0.2307	0.708
298.15 K, x1 = 0.3108	0.704
298.15 K, x1 = 0.4337	0.706
298.15 K, x1 = 0.5454	0.705
298.15 K, x1 = 0.6079	0.705
298.15 K, x1 = 0.7762	0.706
298.15 K, x1 = 0.8807	0.705
303.15 K, x1 = 0.1214	0.66
303.15 K, x1 = 0.2389	0.666
303.15 K, x1 = 0.3117	0.653
303.15 K, x1 = 0.4128	0.657
303.15 K, x1 = 0.5674	0.653
303.15 K, x1 = 0.6882	0.661
303.15 K, x1 = 0.7891	0.661
303.15 K, x1 = 0.9156	0.66

CCc1ccccc1 + COCCO
viscosity [mPa·s], 101 kPa
Details	298.15 K	308.15 K
x2 = 0.0558	0.65	0.548
x2 = 0.1525	0.679	0.577
x2 = 0.2511	0.717	0.612
x2 = 0.3504	0.766	0.655
x2 = 0.4525	0.831	0.708
x2 = 0.5021	0.869	0.738
x2 = 0.5522	0.911	0.771
x2 = 0.6499	1.008	0.844
x2 = 0.75	1.131	0.933
x2 = 0.853	1.291	1.043
x2 = 0.9546	1.488	1.175
